Values after ≈ are worked out from the molar mass of the structure shown. Like-named read-outs stand apart in the source and are kept apart here.
Legend:
[1] = molecular target: hTRPV3 (Homo sapiens (Human), UniProt Q8NET8); test: Whole-cell patch clamp, hTRPV3 Phase 1 / Phase 2 currents; format: cell-based
How it was run: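 Currents are activated by 20 μM 2-APB or by perfusate at 28 °C or warmer, in Ringer's solution, and quantified at ±80 mV.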

[2] = Metabolic Stability assay, rat liver microsomes; format: in vitro ADME
Method: Metabolic Stability assay: The metabolic stability was determined by adding compound dissolved in DMSO to human or rat, liver microsomes. Briefly, assays were run with a starting concentration of 1 μM test article. The reaction was started by addition of NADPH regeneration components at 37° C. at which time an aliquot was immediately quenched in ice-cold acetonitrile/MeOH/H2O solution. Reaction mixture was incubated at 37° C. on a shaker, and additional aliquots were taken at 7, 15, 30 and 60 minutes. Following quench and centrifugation, samples were analyzed on HPLC/MS/MS.

[3] = Aqueous solubility assay in Normal Ringer Solution; conditions: Normal Ringer Solution; for solubility at 40 min: saline or isotonic, kinetic from dmso stock; for Solubility Ringer (nM): room temperature
Method: Following vortex and incubation for a sufficient time (e.g. 40 minutes at room temperature), solutions were filtered, quenched with acetonitrile, and analyzed by Liquid Chromotography. Solubility Limits were determined by comparison to a standard curve.

[4] = Phase 1 current, inward, whole-cell patch clamp, read-out: hTRPV3 Patch P1 Inwd
[5] = Phase 1 current, read-out: hTRPV3 (nM) (Phase 1)
[6] = Phase 2 current, inward, whole-cell patch clamp, read-out: hTRPV3 Patch P2 Inwd
[7] = Phase 2 current, read-out: hTRPV3 (nM) (Phase 2)
[8] = Phase 1 current, human TRPV3, read-out: hTRPV3 (nM) Phase 1

hTRPV3, sequence (Q8NET8 whole entry): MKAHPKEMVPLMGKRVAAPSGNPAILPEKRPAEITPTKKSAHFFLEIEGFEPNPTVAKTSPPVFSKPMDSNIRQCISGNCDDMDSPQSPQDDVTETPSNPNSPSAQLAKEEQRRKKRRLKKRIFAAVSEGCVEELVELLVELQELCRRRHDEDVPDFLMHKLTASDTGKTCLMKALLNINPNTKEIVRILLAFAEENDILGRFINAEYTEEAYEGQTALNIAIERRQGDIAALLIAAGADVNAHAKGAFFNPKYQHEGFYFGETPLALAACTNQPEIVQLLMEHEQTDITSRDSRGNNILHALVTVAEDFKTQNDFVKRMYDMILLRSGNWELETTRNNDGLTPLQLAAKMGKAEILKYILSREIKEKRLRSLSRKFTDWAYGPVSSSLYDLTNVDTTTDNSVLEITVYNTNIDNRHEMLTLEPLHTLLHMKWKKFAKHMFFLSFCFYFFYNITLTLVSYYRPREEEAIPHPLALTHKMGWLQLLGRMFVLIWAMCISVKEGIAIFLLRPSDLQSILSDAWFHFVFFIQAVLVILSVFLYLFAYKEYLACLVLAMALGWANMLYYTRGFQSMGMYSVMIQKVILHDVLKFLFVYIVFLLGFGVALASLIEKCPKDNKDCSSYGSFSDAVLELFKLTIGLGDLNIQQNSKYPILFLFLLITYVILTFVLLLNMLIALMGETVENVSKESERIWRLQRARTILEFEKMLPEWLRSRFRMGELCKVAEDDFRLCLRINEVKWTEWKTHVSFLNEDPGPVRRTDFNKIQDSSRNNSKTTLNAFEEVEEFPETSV

SMILES	IC50 [1, 4] [nM]	IC50 [1, 5] [nM]	IC50 [1, 6] [nM]	IC50 [1, 7] [nM]	half-life at 1 μM ([2]; read-out: LM T1/2 (min) (rat))	solubility at 40 min [3] [µM]	IC50 [1, 8] [nM]	half-life at 1 μM ([2]; read-out: LM T1/2 (min) rat) [min]	Solubility Ringer (nM) [3]	IC50 ([1]; Phase 2 current, human TRPV3, read-out: hTRPV3 (nM) Phase 2) [nM]	IC50 ([1]; hTRPV3 Patch P1 Inwd (nM)) [nM]	IC50 ([1]; read-out: hTRPV3 (nM) (Phase 1))
COc1ccccc1Oc1ccc(N2CC[C@H](Oc3ccc(C)cn3)C2)c(CO)n1 [Compound 1-205, (S)-(6-(2-methoxyphenoxy)-3-(3-(5-methylpyridin-2-yloxy)pyrrolidin-1-yl)pyridin-2-yl)methanol]	> 1000	~3000	> 1000	~6000	16	> 7.2						
OCCOc1cc(-c2ccccc2Cl)ccc1N1CC[C@H](Oc2ccc(C(F)(F)F)cn2)C1 [Compound 1-133, (S)-2-(2′-chloro-4-(3-(5-(trifluoromethyl)pyridin-2-yloxy)pyrrolidin-1-yl)biphenyl-3-yloxy)ethanol]	> 1000	1120			55	0.56 (≈ 0.268 µg/mL)						
CC(C)c1ccccc1-c1ccc([C@@H]2CCN(C(=O)c3ccc(F)cn3)C2)c(CO)c1 [Compound 2-77]	< 10					> 15.5	2.27	9.14				
NC(=O)c1cc(-c2ccccc2)ccc1N1CC[C@H](Nc2ncccc2Cl)C1 [Compound 1-377, (S)-4-(3-(3-chloropyridin-2-ylamino)pyrrolidin-1-yl)biphenyl-3-carboxamide]	100 to 1000	360	100 to 1000	318	35.6	> 3.2						
Cc1ccccc1C(=O)c1ccc(N2CC[C@H](Oc3ncccc3F)C2)c(CO)c1 [Compound 1-243, (S)-(4-(3-(3-fluoropyridin-2-yloxy)pyrrolidin-1-yl)-3-(hydroxymethyl)phenyl)(o-tolyl)methanone]	100 to 1000	296			6.26	~7.34 (≈ 2.98 µg/mL)						
CCc1ccccc1-c1ccc(C2CCN(C(=O)c3ccc(OC)cn3)C2)c(CO)c1 (stereo not drawn) [Compound 2-73, (3-(2′-ethyl-3-(hydroxymethyl)biphenyl-4-yl)pyrrolidin-1-yl)(5-methoxypyridin-2-yl)methanone]	10 to 100					> 26.2	20.5	9.84				
Cc1ccc(C(=O)c2ccc(N3CC[C@H](Oc4ncccc4Cl)C3)c(CO)c2)cc1 [Compound 1-277, (S)-(4-(3-(3-chloropyridin-2-yloxy)pyrrolidin-1-yl)-3-(hydroxymethyl)phenyl)(p-tolyl)methanone]	10 to 100	63			15.7	0.47 (≈ 0.199 µg/mL)						
CC(C)c1ccccc1-c1ccc([C@H]2CCN(C(=O)c3ccc(F)cn3)C2)c(CO)c1 [Compound 2-78]	100 to 1000					> 15.4	234	12.1				
O=C(CO)c1cc(-c2ccccc2)ccc1N1CC[C@H](Oc2ccc(C(F)(F)F)cn2)C1 [Compound 1-178, (S)-2-hydroxy-1-(4-(3-(5-(trifluoromethyl)pyridin-2-yloxy)pyrrolidin-1-yl)biphenyl-3-yl)ethanone]			100 to 1000	146	66.5	~0.2 (≈ 0.0885 µg/mL)						
OCCc1cc(-c2ccccc2)ccc1N1CC[C@H](Oc2ccc(C(F)(F)F)cn2)C1 [Compound 1-142, (S)-2-(4-(3-(5-(trifluoromethyl)pyridin-2-yloxy)pyrrolidin-1-yl)biphenyl-3-yl)ethanol]	100 to 1000	275			65.2				BLQ			
Cc1ccc(O[C@H]2CCN(c3ccc(-c4ccccc4)cc3CO)C2)nc1 [Compound 1-141, (S)-(4-(3-(5-methylpyridin-2-yloxy)pyrrolidin-1-yl)biphenyl-3-yl)methanol]	100 to 1000	125			38.4	~0.97 (≈ 0.35 µg/mL)						
CC(C)c1ccccc1Oc1ccc(N2CC[C@H](Oc3ccccn3)C2)c(CCO)c1 [Compound 1-317]	10 to 100	20.8			12.1				BLQ			
OCc1cc(Oc2cccc(Cl)c2)ccc1N1CC[C@H](Oc2ccccn2)C1 [Compound 1-304]	10 to 100	55.8			17.5	~1 (≈ 0.397 µg/mL)						
OCc1cc(Oc2ccccc2F)ccc1N1CC[C@H](Oc2ncccc2Cl)C1 [Compound 1-270, (S)-(2-(3-(3-chloropyridin-2-yloxy)pyrrolidin-1-yl)-5-(2-fluorophenoxy)phenyl)methanol]	< 10	9.39	< 10	7.44	24.3	1 (≈ 0.415 µg/mL)						
CC(C)c1ccccc1-c1ccc(C2CCN(C(=O)c3ccc(Cl)cn3)C2)c(C(N)=O)c1 (stereo not drawn) [Compound 2-35]	10 to 100		10 to 100			~3.3 (≈ 1.48 µg/mL)	61.7	7.16		64.3		
CCc1ccccc1-c1ccc(C2CCN(C(=O)c3ccc(C)cn3)C2)c(CO)c1 (stereo not drawn) [Compound 2-50, (3-(2′-ethyl-3-(hydroxymethyl)biphenyl-4-yl)pyrrolidin-1-yl)(5-methylpyridin-2-yl) methanone]	10 to 100					~3.9 (≈ 1.56 µg/mL)	89.8	8.67				
CC(C)c1ccccc1Oc1ccc(N2CC[C@H](Oc3ncccc3Cl)C2)c(CCO)c1 [Compound 1-327, (S)-2-(2-(3-(3-chloropyridin-2-yloxy)pyrrolidin-1-yl)-5-(2-isopropylphenoxy)phenyl)ethanol]					14.6				BLQ		10 to 100	15.9
CCc1c(C)cccc1-c1ccc(C2CCN(C(=O)c3ccc(Cl)cn3)C2)c(CO)c1 (stereo not drawn) [Compound 2-67, (5-chloropyridin-2-yl)(3-(2′-ethyl-3-(hydroxymethyl)-3′-methylbiphenyl-4-yl)pyrrolidin-1-yl)methanone]	< 10					~3.6 (≈ 1.57 µg/mL)	0.698	8.47				
OCCc1cc(C(O)c2ccccc2Cl)ccc1N1CC[C@H](Nc2ccc(F)cn2)C1 (stereo partly drawn) [Compound 1-390, 2-(5-((2-chlorophenyl)(hydroxy)methyl)-2-((S)-3-(5-fluoropyridin-2-ylamino)pyrrolidin-1-yl)phenyl)ethanol]	100 to 1000	219			7.23	> 13.6						
CC(C)c1ccccc1-c1ccc(C2CCN(C(=O)c3ccc(Cl)cn3)C2)c(CO)c1 (stereo not drawn) [Compound 2-30]	< 10					~3.7 (≈ 1.61 µg/mL)	2.68	13.9				
Cc1ccccc1C(O)c1ccc(N2CC[C@H](Oc3ncccc3Cl)C2)c(CO)c1 (stereo partly drawn) [Compound 1-247, (4-((S)-3-(3-chloropyridin-2-yloxy)pyrrolidin-1-yl)-3-(hydroxymethyl)phenyl)(o-tolyl)methanol]	100 to 1000	132	100 to 1000	202	13.1	> 9						
CCc1ccccc1Oc1ccc(N2CC[C@H](OCc3ncccc3C)C2)c(CO)c1 [Compound 1-398]		187		64.8	5.19	~1.4 (≈ 0.586 µg/mL)						
CCc1cc(C)ccc1-c1ccc(C2CCN(C(=O)c3ccc(Cl)cn3)C2)c(CO)c1 (stereo not drawn) [Compound 2-66, (5-chloropyridin-2-yl)(3-(2′-ethyl-3-(hydroxymethyl)-4′-methylbiphenyl-4-yl)pyrrolidin-1-yl)methanone]	10 to 100					~1.9 (≈ 0.826 µg/mL)	16.5	24.9				

— patent US12435061B2 (priority 2020, dated 2025)
